Earlier results on two compounds are cited in patent publication US20210393545A1, “NATURAL PRODUCT COMPOSITION FOR STIMULATING HAIR GROWTH” (priority 2018, published 2021).

The test system of data set [1] is testosterone 5 alpha reductase. The conditions noted are these: reported in the literature.
The next data set addresses T1, OR2AT4 (Homo sapiens, UniProt A6NND4).
T1 construct: from tissue; host or cells: human hair follicles (outer root sheath epithelium), ex vivo
T1 sequence (A6NND4 1-320): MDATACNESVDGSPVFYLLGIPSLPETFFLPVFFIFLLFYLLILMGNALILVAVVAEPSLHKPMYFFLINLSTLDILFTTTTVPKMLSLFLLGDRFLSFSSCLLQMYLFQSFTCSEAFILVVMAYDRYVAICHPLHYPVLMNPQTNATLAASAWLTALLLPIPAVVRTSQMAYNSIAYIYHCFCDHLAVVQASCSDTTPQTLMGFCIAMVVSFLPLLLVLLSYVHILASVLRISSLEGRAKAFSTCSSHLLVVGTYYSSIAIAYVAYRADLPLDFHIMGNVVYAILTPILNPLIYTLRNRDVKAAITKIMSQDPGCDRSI
The conditions noted are these: human hair follicles ex vivo.

For `CC(C)c1cc2c(c(O)c1O)[C@@]1(C(=O)O)CCCC(C)(C)[C@@H]1CC2` [carnosic acid], the “5 alpha reductase activity” value in data set [1] is “active ingredient in suppressing 5 alpha reductase activity”.

With `CC1=CCC(CCC(C)C(C)O)C1(C)C` (stereo not shown) [Sandalore®, 3-methyl-5(2,2,3-Trimethylcyclepent-3-en-1-yl) pentan-2-ol], on OR2AT4, the apoptosis entry is reported as “decreasing apoptosis”, the “human hair growth ex vivo” value is on record as “prolongs human hair growth ex vivo” and the “production of IGF-1” value is listed as “increasing production of the anagen-prolonging growth factor IGF-1”.
